Measurements taken from the SangsterLogP compilation.

Assays:
[1] = method code SF, from PMID: 10544519

Row | logP | logP [1] | Structure (SMILES)
1 | 0.45 | – | Cc1nc2ccccc2c(=O)n1CC(=O)N1CCOCC1
2 | 2.98 | – | COC(=O)c1cc(NC(=O)Cn2c(C)nc3ccccc3c2=O)cc(C(=O)OC)c1
3 | 0.09 | – | Cc1nc2ccccc2c(=O)n1CC(=O)Nc1ccc(S(=O)(=O)NC(=N)N)cc1
4 | – | 0.64 | Cc1nc2ccccc2c(=O)n1CCC(=O)O
5 | 1.42 | – | Cc1nc2ccccc2c(=O)n1CC(=O)N1CCCCC1
6 | 1.34 | – | Cc1nc2ccccc2c(=O)n1CC(=O)NNc1ccccc1
7 | – | 0.08 | Cc1nc2ccccc2c(=O)n1CC(=O)O
8 | 0.44 | – | COC(=O)CNC(=O)Cn1c(C)nc2ccccc2c1=O
9 | 1.14 | – | CCN(CC)C(=O)Cn1c(C)nc2ccccc2c1=O
10 | 0.64 | – | CCOC(=O)c1nc2ccccc2c(=O)[nH]1
11 | 1.07 | – | Cc1nc2ccccc2c(=O)n1CC(=O)Nc1c(C)n(C)n(-c2ccccc2)c1=O
12 | 1.24 | – | Cc1nc2ccccc2c(=O)n1CC(=O)NCc1ccco1
13 | 0.7 | – | Cc1cc(C)nc(NS(=O)(=O)c2ccc(NC(=O)Cn3c(C)nc4ccccc4c3=O)cc2)n1
14 | – | 1.46 | COC(=O)Cn1c(C)nc2ccccc2c1=O
15 | 2.19 | – | CCOc1ccc(NC(=O)Cn2c(C)nc3ccccc3c2=O)cc1
16 | 1.78 | – | Cc1nc2ccccc2c(=O)n1CC(=O)NCc1ccccc1
17 | 3.53 | – | COC(=O)c1ccc(C(=O)OC)c(NC(=O)Cn2c(C)nc3ccccc3c2=O)c1
